Source: patent EP4643869A1, “USE OF GNRH ANTAGONISTS SUCH AS TEVERELIX TO TREAT ACUTE URINARY RETENTION” (Antev Limited, priority 2024, dated 2025)
Structures can show the parent of a compound that is named as a salt. Where a SMILES comes first, the peptide text is derived from it. [ ]: non-standard residue; d: D form. dPhe(4-Cl) = N[C@H](Cc1ccc(Cl)cc1)C(=O)O; d2Nal = N[C@H](Cc1ccc2ccccc2c1)C(=O)O; d(hCit) = NC(=O)NCCCC[C@@H](N)C(=O)O; Lys(iPr) = CC(C)NCCCC[C@H](N)C(=O)O; d3Pal = N[C@H](Cc1cccnc1)C(=O)O

Tests used:
[1] = Plasma concentrations of teverelix (Experiment I); type: in vivo, human; conditions: 60 mg s.c. on Day 1 and Day 3
Method: (§1) The study comprised two periods: a four-week single-blind placebo run-in period for all patients to remove any placebo responders and reduce between-patient variability in baseline measurements. This was followed by a 16-week randomised, double-blind, placebo-controlled, parallel group period for eligible patients. Following screening (Day-28), patients entered the placebo run-in period and received two subcutaneous injections of placebo, 48 h apart. During this period, one visit was planned for training purposes (e.g., IPSS). At the end of the placebo run-in period, patients still meeting the eligibility criteria were randomised to receive two subcutaneous injections of 60 mg teverelix or placebo, 48 h apart, on day 1 and day 3. Teverelix was supplied as a freeze-dried powder that was reconstituted with 5% mannitol in water for injection. Corresponding placebo formulations, without teverelix-TFA, were also prepared. Injections were given in the abdomen. Patients attended follow-up visits for up to 16 weeks.
Blood samples were gathered in the morning on Day 1 and Day 3 prior to dosing, along with assessments at the conclusion of Weeks 1, 2, 3, 4, 8, 12, and the final evaluation at Week 16, for the measurement of teverelix, testosterone, and dihydrotestosterone (DHT). Plasma concentrations of teverelix were analysed to delineate the release profile of the active substance from teverelix.

[2] = system: patients 50 years or over, with BPH and bothersome voiding symptoms; test: Safety: adverse events (Experiment I); type: in vivo, human
Method: as §1
Safety included the assessment of adverse events (AEs), vital signs (supine blood pressure and pulse), electrocardiograms (ECG), and clinical laboratory parameters (haematology, clinical chemistry, and urinalysis). Drug-related AEs were defined as those with a relationship to study drug of `likely' or `not assessable'.

testosterone = test: PKPD of single-dose teverelix-TFA, subcutaneous or intramuscular; type: in vivo; conditions: single dose of 120 mg subcutaneous
male and female subjects = test: Safety across 16 Phase 1 and Phase 2 clinical trials; type: in vivo; conditions: 1,117 injections s.c. or i.m.; no SUSARs reported
Method: Teverelix-TFA has been studied in 450 male and female subjects in 16 Phase 1 and Phase 2 clinical trials. Teverelix-TFA has been tested in various dosing regimens in Phase 2 clinical trials in 97 patients with BPH.
Administrations have ranged from a single dose of 0.125 mg up to 180 mg repeat doses of teverelix for three consecutive days.

[3] = system: patients 50 years or over, with BPH and bothersome voiding symptoms; test: Investigator rating of efficacy and tolerability at final assessment (Experiment I); type: in vivo, human
Method: This was a multicentre (n=8), randomised, double-blind, placebo-controlled study in treatment of patients 50 years or over, with BPH and bothersome voiding symptoms characterized as an International Prostate Symptom Score (IPSS score ≥13) and a uroflow <13 mL/sec for a voided volume ≥150 mL. Exclusion criteria included an urgent need for prostate surgery, elevated prostate specific antigen (PSA) levels above the upper limit of normal relative to age, major organ dysfunction, prior surgical treatment of the prostate or bladder, and a large residual urine volume (>350 mL).
The study comprised two periods: a four-week single-blind placebo run-in period for all patients to remove any placebo responders and reduce between-patient variability in baseline measurements. This was followed by a 16-week randomised, double-blind, placebo-controlled, parallel group period for eligible patients. Following screening (Day-28), patients entered the placebo run-in period and received two subcutaneous injections of placebo, 48 h apart. During this period, one visit was planned for training purposes (e.g., IPSS). […]
At the final assessment, the investigator assessed efficacy and tolerability as either very good/good, satisfactory, poor/insufficient, or not assessable.

[4] = system: patients with a first episode of AUR related to BPH; conditions: alfuzosin 10 mg once daily; placebo 39.7%; cited from earlier work

Row | SMILES | time until which teverelix plasma concentrations kept rising [1] | patients reporting an AE likely drug-related or not assessable ([2]; 22 patients of 41) [%] | intensity of drug-related AEs ([2]; in vivo) | patients with drug-related hyperuricaemia ([2]; in vivo) | patients with drug-related urinary retention ([2]; in vivo) [patient] | serious AEs, assessed as not drug related ([2]; in vivo) | injection site induration ([2]; share of patients) [%] | pain (AE) ([2]; share of patients) [%] | subcutaneous injection site reactions ([2]; share of patients) [%] | PKPD profile versus two subcutaneous injections of 60 mg two days apart (testosterone) | overall safety and tolerability (male and female subjects) | patients rated by the investigator as having very good/good tolerability [3] | success rate after 6 months (successful TWOC and no AUR relapse nor any need for surgery) [4] [%]
1 | CC(=O)N[C@H](Cc1ccc2ccccc2c1)C(=O)N[C@H](Cc1ccc(Cl)cc1)C(=O)N[C@H](Cc1cccnc1)C(=O)N[C@@H](CO)C(=O)N[C@@H](Cc1ccc(O)cc1)C(=O)N[C@H](CCCCNC(N)=O)C(=O)N[C@@H](CC(C)C)C(=O)N[C@@H](CCCCNC(C)C)C(=O)N1CCC[C@H]1C(=O)N[C@H](C)C(N)=O [teverelix, N-Ac-d-Nal^1,d-pCl-Phe^2,d-Pal^3,d-(Hci)^6,Lys(iPr)^8,d-Ala^10 trifluoroacetate] (Ac-[d2Nal][dPhe(4-Cl)][d3Pal]SY[d(hCit)]L[Lys(iPr)]P[dA]-NH2) | until the end of Week 3 | 53.7 | mild intensity | one patient | 1 | cholelithiasis/pancreatitis | 17.1 | 2.4 | 31.7 | comparable | safe and well-tolerated | all patients | 
2 | COc1cc2nc(N(C)CCCNC(=O)C3CCCO3)nc(N)c2cc1OC (stereo not shown) [alfuzosin] |  |  |  |  |  |  |  |  |  |  |  |  | 43.5
